{"source": "patent US5424312A", "about": "“Aminoalkyl-substituted 2-amino-1,3,4-thiadiazoles, the preparation and use thereof” (BASF Aktiengesellschaft, priority 1991, dated 1995)", "biological_target": "T1, dopamine D2 receptor (Rattus norvegicus, UniProt P61169)", "T1 construct": "Striata from rats (Sprague Dawley, Charles River) were homogenized immediately after removal; from tissue; host or cells: rat striatum (Sprague Dawley, Charles River), membranes", "T1 sequence (P61169 whole entry)": "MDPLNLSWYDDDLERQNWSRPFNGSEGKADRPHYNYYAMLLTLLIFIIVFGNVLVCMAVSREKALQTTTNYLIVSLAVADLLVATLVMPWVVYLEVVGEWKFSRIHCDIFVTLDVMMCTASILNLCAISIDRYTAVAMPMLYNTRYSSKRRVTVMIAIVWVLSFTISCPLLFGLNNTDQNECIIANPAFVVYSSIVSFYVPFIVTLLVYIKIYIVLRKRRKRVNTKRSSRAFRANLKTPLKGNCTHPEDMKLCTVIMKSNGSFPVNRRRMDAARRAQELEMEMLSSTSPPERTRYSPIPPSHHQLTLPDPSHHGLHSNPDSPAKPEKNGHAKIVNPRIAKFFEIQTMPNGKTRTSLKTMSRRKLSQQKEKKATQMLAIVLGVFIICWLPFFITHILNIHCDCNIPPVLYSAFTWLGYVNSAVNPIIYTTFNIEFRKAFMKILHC", "test": "Receptor binding assay with 3H-ADTN on rat striatal membranes: affinity for the dopamine D2 receptor", "parameters": "species or system rat (Sprague Dawley)", "method": "The effects of the novel compounds can be shown in the receptor binding assay as follows:\nStriata from rats (Sprague Dawley, Charles River) were homogenized immediately after removal in 0.32M sucrose solution (0° C.). The homogenate was filtered through gauze, the filtrate was centrifuged at 1000×g (5 min at 4° C.) and the resulting supernatant was centrifuged at 40000×g (4C 10 min) The residue (membranes) was taken up in incubation buffer (50 mM tris-HCl, 1 mM MgCl2 and 0.1% ascorbic acid, pH 7.4) and incubated at 37° C. for 20 min. The residue was subsequently washed 2× with incubation buffer by resuspension and recentrifugation. The membranes were frozen in portions in liquid nitrogen.\nThe assay mixtures (1 ml) were composed of membranes (380 μg of protein), 1 nM ^3 H-ADTN (NEN, Dreieich Germany, specific radioactivity 1.4 TBq/mmol) and 0.1 μM SCH 23390 (total binding) or a) with the addition of 50 nM spiperone (non-specific binding) or b) with test substance. The mixtures were prepared in triplicate.\nAfter the incubation (40 min at 25° C.) the mixtures were filtered through glass fiber filters (Whatman GF/B) and briefly washed with ice-cold washing buffer (tris-HCl, pH 7.4). The radioactivity retained on the filters was determined by liquid scintillation counting. The non-specific binding comprised about 40-50% of the total binding.\nThe evaluation of the competition plots and the determination of the dissociation constant took place by iterative non-linear regression analysis based on the \"ligand\" program (Muson and Rodbard: Anal. Biochem. 107 (1980) 220).\nAffinity of the test substances for the dopamine D2 receptor", "key": {"[1]": {"details": "rat striatum membranes, 1 nM 3H-ADTN, 0.1 μM SCH 23390, non-specific binding with 50 nM spiperone, 40 min at 25° C., read-out: Affinity of the test substances for the dopamine D2 receptor, Ki"}}, "note": "Counter-ions that a name gives are not always drawn. Like-named read-outs stand apart in the source and are kept apart here."}
{"smiles": "Nc1nnc(CCCCN2CC=C(c3ccccc3)CC2)s1", "note": "[Example 18, 2-Amino-5-[4-(1,2,3,6-tetrahydro-4-phenylpyridinyl)-butyl]-1,3,4-thiadiazole]", "values": [{"measurement": "Ki", "result": 0.005, "unit": "µM"}]}
{"smiles": "Nc1nnc(CCN2CC=C(c3ccccc3)CC2)s1", "note": "[Example 4, 2-Amino-5-[2-(1,2,3,6-tetrahydro-4-phenylpyridyl)-ethyl]-1,3,4-thiadiazolehydrochloride]", "values": [{"measurement": "Ki", "setting": "[1]", "result": 0.03, "unit": "µM"}]}
{"smiles": "Nc1nnc(CCN2CC=C(c3ccc(Cl)cc3)CC2)s1", "note": "[Example 7, 2-Amino-5-[2-(4-(4-chlorophenyl)-l,2,3,6-tetrahydropyridyl)ethyl]-1,3,4-thiadiazole dihydrochloride]", "values": [{"measurement": "Ki", "setting": "[1]", "result": 0.03, "unit": "µM"}]}
{"smiles": "Nc1nnc(CCCCN2CCN(c3ccccn3)CC2)s1", "note": "[Example 21, 2-Amino-5-[4-(4-pyridin-2-ylpiperazinyl)butyl]-1,3,4-thiadiazole]", "values": [{"measurement": "Ki", "setting": "[1]", "result": 0.044, "unit": "µM"}]}
{"smiles": "Nc1nnc(CCCCCN2CC=C(c3ccccc3)CC2)s1", "note": "[Example 19, fumarate]", "values": [{"measurement": "Ki", "result": 0.01, "unit": "µM"}]}
{"smiles": "Nc1nnc(CCCN2CC=C(c3ccccc3)CC2)s1", "note": "[Example 10, 2-Amino-5-[3-(1,2,3,6-tetrahydro-4-phenylpyridyl)propyl]-1,3,4-thiadiazolehydrochloride]", "values": [{"measurement": "Ki", "setting": "[1]", "result": 0.032, "unit": "µM"}]}
{"smiles": "Nc1nnc(CCN2CCC(c3ccccc3)CC2)s1", "note": "[Example 24, 2-Amino-5-[2-(4-phenylpiperidinyl)ethyl]-1,3,4-thiadiazole]", "values": [{"measurement": "Ki", "setting": "[1]", "result": 0.037, "unit": "µM"}]}
